Test results taken from patent US20240383853A1, “OXIMES AND THEIR USE IN TREATMENT OF GBA-RELATED DISEASES” (ZEVRA DENMARK A/S, priority 2021, published 2024).

Molecular target: T1, glucosylceramidase (GCase, GBA) in human fibroblast cell line GM10915 harboring the L444P GBA mutation (Homo sapiens, UniProt P04062, L483P)
T1 construct: Human fibroblast cell line GM10915 harboring the L444P GBA mutation; host or cells: GM10915 human fibroblasts
T1 sequence (P04062 40-536 L483P): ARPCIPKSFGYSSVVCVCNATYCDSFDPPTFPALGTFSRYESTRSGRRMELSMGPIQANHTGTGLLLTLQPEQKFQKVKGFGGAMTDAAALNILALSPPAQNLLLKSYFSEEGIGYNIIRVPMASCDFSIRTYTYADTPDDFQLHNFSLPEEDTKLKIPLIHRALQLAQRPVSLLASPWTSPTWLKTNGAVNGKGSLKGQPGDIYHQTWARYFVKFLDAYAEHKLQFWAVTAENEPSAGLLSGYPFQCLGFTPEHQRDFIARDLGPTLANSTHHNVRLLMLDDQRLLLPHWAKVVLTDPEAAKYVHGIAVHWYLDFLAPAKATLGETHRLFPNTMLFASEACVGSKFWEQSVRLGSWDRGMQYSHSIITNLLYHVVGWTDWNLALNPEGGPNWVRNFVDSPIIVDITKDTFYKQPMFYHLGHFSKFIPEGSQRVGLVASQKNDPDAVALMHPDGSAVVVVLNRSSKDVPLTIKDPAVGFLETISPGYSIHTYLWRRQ
Test: GCase activity assay (4-MUG substrate, normalised to crystal violet staining) in GM10915 fibroblasts
Assay type: cell-based
Conditions: five days exposure; for GBA EC1.5: concentration where Percent GCase activity = 150% (1.5-fold induction), 8-point dose range; for Emax / GBA Emax: maximum Percent GCase activity relative to untreated cells in the dose range tested
Description: Human fibroblast cell line GM10915 harboring the L444P GBA mutation was obtained from Coriell Biorepositories. All chemicals (Glacial acetic acid, Glycine, 4-Methylumbelliferyl b-D-glucopyranoside (4-MUG), Sodium acetate trihydrate, Sodium hydroxide, Crystal violet, SDS, Ammonium hydroxide) were obtained from Sigma-Aldrich (Denmark). Compounds tested for GCase activity were dissolved in H2O or DMSO.
The GM10915 cell line was cultured under standard cell culture conditions (37° C. and 5% CO2) in complete DMEM medium supplemented with nonessential amino acids (NEAA), 1% Pen-Strep and 12% FCS. Cells were seeded at a density of 10^4 cells/well in 100 μL complete medium in one black 96-well plate for glucosylceramidase (GCase) activity measurement and in one clear 96-well plate for crystal violet staining to correct for cell density. Crystal violet staining is performed to obtain quantitative information about the relative density of cells adhering to multi-wells plates.
The assay was adapted from Sawkar et al (2002) and briefly described in the following. The day after seeding of cells, the medium was replaced with fresh medium containing the compounds to be tested. Compounds were tested in duplicate and in an 8-point diluted dose range to obtain a dose response. Cells were exposed with compounds for five days. Fresh compound was added every 2-3 days. PBS was included to define the basal level of GCase activity.
Cells were washed three times with 200 μL PBS per well and 50 μL of 2.5 mM 4-MUG buffer (4-MUG dissolved in 0.2 M acetate buffer pH 4.0) was added and the cells were incubated at 37° C., 5% CO2 for 23 hours. The reaction was stopped by adding 150 μL 0.2 M glycine buffer (pH 10.8). Fluorescence was measured with a Varioskan® Flash reader (Thermo Scientific) at an excitation/emission setting of 365/445 nm.
Cells were treated with compounds in a parallel setup identical to the setup to test for GCase activity. At the end of compound treatment, cells were washed once with 200 μL PBS per well and 50 μL 0.1% w/v crystal violet (in H2O) was added. Following 10 min. of incubation, the crystal violet solution was removed, and the cells were washed three times with 200 μL PBS and 100 μL 1% SDS was added to solubilize the stain. The plate was agitated on an orbital shaker for 10-30 min. Absorbance (A) is measured at […] using a Varioskan® Flash reader (Thermo Scientific).
The fluorescence signal (F) derived from the GCase measurement is normalized to the absorbance signal (A) derived from the crystal violet staining. The percent GCase activity resulting from compound treatment is calculated relative to the basal activity obtained from untreated cells.
Maximal effect of compounds (Emax) is determined from the dose response effects as the maximum “Percent GCase activity” achieved in the dose range tested.

Compound | GBA EC1.5 | Emax | GBA EC1.5 (listed as 550) | GBA Emax (listed as 550) | GBA Emax
CN(CC/C(Cl)=N\OCC(O)CN1CCCCC1)C(=O)OC(C)(C)C (stereo not drawn) [ID 599, tert-butyl (3-chloro-3-((2-hydroxy-3-(piperidin-1-yl)propoxy)imino)propyl)(methyl)carbamate] | 48 µM | 136% | – | – | –
CCCCCO[C@H]1CC[C@H](NC(=O)c2cnn3c(C)cc(C)nc23)CC1 [LTI-291, reference compound] | 112 µM | 232% | – | – | –
N-(2-hydroxy-3-(piperidin-1-yl)propoxy)-4-((6-methoxy-2-methylpyridin-3-yl)methyl)piperidine-4-carbimidoyl chloride tri-2,2,2-trifluoroacetate [ID 524] | 1 µM | – | – | – | 149%
N-(2-hydroxy-3-(piperidin-1-yl)propoxy)-4-((6-methylpyridin-3-yl)methyl)piperidine-4-carbimidoyl chloride tri-2,2,2-trifluoroacetate [ID 493] | 18 µM | – | – | – | 279%

Now from value to compound, other results behind:

GBA EC1.5 | Emax | GBA EC1.5 (listed as 550) | GBA Emax (listed as 550) | Compound | GBA Emax
19 µM | 226% | – | – | OC(CON=C(Cl)C1(c2ccccn2)CCNCC1)CN1CCCCC1 (stereo not drawn) [ID 534, N-(2-hydroxy-3-(piperidin-1-yl)propoxy)-4-(pyridin-2-yl)piperidine-4-carbimidoyl chloride tri-2,2,2-trifluoroacetate] | –
– | – | 27 µM | 159% | OC(CO/N=C(\Cl)C1(Cc2cccnc2)CCNCC1)CN1CCCCC1 (stereo not drawn) [ID 550] | –
3 µM | 239% | – | – | OC(CON=C(Cl)CCN1CCCC1)CN1CCCCC1 (stereo not drawn) [ID 562, N-(2-hydroxy-3-(piperidin-1-yl)propoxy)-3-(pyrrolidin-1-yl)propanimidoyl chloride] | –
3 µM | 211% | – | – | OC(CON=C(Cl)CCN1CCCCC1)CN1CCCCC1 (stereo not drawn) [ID 563, N-(2-hydroxy-3-(piperidin-1-yl)propoxy)-3-(piperidin-1-yl)propanimidoyl chloride] | –
50 µM | 136% | – | – | OC(CO/N=C(\Cl)CCN1CCNCC1)CN1CCCCC1 (stereo not drawn) [ID 593] | –
